# From patent US10709707B2, “Methods of treating ocular conditions” (Oyster Point Pharma, Inc., priority 2016, dated 2020)
# Several values for one entry are separate records, joined by “and”; a condition that tells them apart may be missing. Equal values may be shown once. Entries after “also recorded” stand apart in the source; their conditions may differ. Read-outs that look alike come from different tables or passages of the source.
# What was measured:
# [1] = biological target: T1, muscle receptor (α1β1δγ) (Homo sapiens, UniProt P02708+P07510+Q07001); assay: Receptor binding muscle receptor, TE-671 membranes
# T1 construct: endogenous in cells; host or cells: TE671 (TE-671) cells / membranes (per the earlier reading)
# [2] = biological target: a6b3b4a5 (Homo sapiens, UniProt P30926+Q15825); assay: Receptor binding a6b3b4a5
# a6b3b4a5, sequence (Q15825 26-494): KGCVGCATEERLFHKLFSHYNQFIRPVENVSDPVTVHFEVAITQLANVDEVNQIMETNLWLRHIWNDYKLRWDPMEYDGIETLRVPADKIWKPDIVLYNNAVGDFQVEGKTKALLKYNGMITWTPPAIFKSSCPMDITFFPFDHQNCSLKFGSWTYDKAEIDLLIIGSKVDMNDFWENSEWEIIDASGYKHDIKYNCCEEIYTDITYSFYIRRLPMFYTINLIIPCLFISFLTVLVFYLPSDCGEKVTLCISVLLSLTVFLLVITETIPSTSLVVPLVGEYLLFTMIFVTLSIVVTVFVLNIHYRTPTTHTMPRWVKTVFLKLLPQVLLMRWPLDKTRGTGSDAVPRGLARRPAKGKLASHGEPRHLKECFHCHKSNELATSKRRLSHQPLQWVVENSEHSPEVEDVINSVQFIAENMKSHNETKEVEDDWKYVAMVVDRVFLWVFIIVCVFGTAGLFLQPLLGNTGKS
# a6b3b4a5, sequence (P30926 22-498): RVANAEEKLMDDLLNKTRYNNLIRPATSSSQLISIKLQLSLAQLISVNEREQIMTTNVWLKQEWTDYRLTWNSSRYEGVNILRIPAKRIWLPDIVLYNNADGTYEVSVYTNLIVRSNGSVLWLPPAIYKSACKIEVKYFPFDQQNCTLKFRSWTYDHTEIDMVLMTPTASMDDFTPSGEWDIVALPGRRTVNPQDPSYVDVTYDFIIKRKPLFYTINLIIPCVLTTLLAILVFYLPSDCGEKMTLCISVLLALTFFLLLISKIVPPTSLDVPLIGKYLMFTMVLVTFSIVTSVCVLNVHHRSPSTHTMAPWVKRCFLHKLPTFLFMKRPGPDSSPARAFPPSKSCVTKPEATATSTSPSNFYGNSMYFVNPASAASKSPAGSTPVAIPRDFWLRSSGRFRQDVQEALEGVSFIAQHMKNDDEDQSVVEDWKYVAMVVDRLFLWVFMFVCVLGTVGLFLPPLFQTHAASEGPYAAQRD
# a6b3b4a5, sequence (Q05901 25-458 partner limits assumed): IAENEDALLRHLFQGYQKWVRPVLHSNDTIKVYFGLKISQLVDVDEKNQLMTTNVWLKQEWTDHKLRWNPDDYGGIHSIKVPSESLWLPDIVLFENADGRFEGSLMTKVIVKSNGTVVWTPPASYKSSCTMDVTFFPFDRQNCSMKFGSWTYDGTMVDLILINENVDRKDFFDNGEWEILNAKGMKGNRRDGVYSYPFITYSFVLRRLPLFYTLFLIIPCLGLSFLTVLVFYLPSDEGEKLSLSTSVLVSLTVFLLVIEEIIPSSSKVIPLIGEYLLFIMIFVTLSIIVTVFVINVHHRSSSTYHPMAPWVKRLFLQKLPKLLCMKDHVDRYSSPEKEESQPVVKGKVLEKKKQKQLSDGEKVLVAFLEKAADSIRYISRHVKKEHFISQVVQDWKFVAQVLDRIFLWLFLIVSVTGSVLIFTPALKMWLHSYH
# a6b3b4a5, sequence (P30532 23-468 partner): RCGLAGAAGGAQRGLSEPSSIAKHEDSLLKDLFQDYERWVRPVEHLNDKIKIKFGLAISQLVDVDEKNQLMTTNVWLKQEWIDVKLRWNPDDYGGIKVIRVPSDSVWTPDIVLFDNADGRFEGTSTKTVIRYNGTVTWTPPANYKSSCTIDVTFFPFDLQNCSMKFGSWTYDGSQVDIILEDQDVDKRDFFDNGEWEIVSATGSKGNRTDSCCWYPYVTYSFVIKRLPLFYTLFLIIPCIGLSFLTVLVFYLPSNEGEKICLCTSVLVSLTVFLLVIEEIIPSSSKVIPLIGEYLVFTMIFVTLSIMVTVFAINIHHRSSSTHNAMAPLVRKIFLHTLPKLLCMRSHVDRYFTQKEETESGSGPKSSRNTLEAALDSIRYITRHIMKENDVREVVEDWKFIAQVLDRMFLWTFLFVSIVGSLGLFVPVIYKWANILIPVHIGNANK
# [3] = system: α4β2 (rat), a4b2*/a6b2*; assay: Receptor function, [3H]-dopamine release from rat striatal synaptosomes; type: biochemical
# [4] = biological target: T2, a3b2 (Homo sapiens, UniProt P17787+P32297); assay: Receptor function a3b2, Ca++ flux; type: cell-based
# T2 construct: expressed in transfected cells
# T2 sequence (P32297 32-505): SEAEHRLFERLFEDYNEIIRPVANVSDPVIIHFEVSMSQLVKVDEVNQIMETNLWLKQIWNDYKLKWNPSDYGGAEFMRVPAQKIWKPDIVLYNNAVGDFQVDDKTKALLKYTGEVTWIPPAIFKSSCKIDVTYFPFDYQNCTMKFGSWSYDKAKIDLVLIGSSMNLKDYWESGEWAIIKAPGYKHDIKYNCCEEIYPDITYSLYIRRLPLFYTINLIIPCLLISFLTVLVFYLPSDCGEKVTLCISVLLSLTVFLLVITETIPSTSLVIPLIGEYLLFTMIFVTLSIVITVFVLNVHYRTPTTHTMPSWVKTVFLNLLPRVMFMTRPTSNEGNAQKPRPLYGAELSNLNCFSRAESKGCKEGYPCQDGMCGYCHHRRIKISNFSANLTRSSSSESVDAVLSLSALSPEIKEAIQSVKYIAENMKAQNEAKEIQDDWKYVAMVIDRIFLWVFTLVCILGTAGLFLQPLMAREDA
# T2 sequence (P17787 26-502): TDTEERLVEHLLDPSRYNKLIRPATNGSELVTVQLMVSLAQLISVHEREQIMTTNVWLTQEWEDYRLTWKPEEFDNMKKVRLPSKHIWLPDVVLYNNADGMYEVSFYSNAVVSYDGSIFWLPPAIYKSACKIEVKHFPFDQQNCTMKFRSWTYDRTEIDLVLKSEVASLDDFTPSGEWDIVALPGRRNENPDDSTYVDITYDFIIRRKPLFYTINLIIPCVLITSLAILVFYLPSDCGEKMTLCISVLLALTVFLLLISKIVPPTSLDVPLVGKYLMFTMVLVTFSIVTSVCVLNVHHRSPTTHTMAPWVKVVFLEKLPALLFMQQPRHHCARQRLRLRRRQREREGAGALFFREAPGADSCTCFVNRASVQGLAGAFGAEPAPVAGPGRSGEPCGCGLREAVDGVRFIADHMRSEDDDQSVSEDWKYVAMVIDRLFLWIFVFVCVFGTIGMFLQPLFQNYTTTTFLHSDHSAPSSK
# [5] = biological target: a6/a3b2b3 (Homo sapiens, UniProt P17787+P32297+Q15825); assay: Receptor function a6/a3b2b3, Ca++ flux; type: cell-based
# a6/a3b2b3, sequence (Q15825+P32297 fused with the stated changes): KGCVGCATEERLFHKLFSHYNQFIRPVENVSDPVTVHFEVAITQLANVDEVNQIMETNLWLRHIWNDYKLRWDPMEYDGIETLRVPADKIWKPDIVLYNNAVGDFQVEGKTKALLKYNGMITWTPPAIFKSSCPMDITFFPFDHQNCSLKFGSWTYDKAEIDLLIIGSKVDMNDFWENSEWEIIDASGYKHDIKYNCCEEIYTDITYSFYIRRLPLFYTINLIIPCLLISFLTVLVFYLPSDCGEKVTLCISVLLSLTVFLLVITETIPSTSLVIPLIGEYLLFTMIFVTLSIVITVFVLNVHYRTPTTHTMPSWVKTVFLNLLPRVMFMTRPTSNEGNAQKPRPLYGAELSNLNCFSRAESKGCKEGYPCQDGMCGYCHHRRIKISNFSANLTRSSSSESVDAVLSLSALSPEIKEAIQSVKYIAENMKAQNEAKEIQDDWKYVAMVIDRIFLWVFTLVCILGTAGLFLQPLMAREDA
# a6/a3b2b3, sequence (P17787 26-502): as the sequence (P17787 26-502) above
# a6/a3b2b3, sequence (Q05901 25-458 partner limits assumed): as the sequence (Q05901 25-458 partner limits assumed) above
# [6] = biological target: high and low sensitivity alpha4beta2-containing NNR subtypes (Homo sapiens, UniProt P17787+P43681); assay: Electrophysiology studies; type: cell-based
# high and low sensitivity alpha4beta2-containing NNR subtypes, sequence (P43681 29-627 limits assumed): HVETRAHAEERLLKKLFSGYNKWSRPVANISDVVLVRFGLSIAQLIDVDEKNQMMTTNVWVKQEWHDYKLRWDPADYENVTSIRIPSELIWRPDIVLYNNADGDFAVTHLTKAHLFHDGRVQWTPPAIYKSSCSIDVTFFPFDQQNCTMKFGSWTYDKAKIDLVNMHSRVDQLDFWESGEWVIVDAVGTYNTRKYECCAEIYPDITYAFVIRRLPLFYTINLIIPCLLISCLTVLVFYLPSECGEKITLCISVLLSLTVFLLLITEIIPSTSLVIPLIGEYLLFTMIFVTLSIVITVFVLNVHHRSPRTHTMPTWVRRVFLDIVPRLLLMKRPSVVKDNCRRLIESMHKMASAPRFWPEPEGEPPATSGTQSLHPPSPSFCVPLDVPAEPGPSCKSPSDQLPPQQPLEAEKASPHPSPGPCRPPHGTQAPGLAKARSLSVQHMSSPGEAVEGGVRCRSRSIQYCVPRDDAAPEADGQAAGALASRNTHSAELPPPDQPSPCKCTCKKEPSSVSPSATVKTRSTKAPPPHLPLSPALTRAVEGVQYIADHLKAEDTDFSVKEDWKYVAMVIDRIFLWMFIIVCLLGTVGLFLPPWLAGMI
# high and low sensitivity alpha4beta2-containing NNR subtypes, sequence (P17787 26-502): as the sequence (P17787 26-502) above
# Source text: It is readily absorbed following oral administration and has favorable pharmacokinetics.
# [7] = system: pentylenetetrazole convulsions; assay: CNS safety pharmacology, convulsant properties with subconvulsant pentylenetetrazole; type: in vivo, Rat: Sprague-Dawley
# [8] = system: Rabbit Purkinje fibers; assay: Cardiovascular safety, rabbit Purkinje fibers in vitro
# [9] = system: blood pressure, heart rate, ECG; assay: Cardiovascular safety, guinea pig iv; type: in vivo
# [10] = Solubility in aqueous solutions; type: physicochemical
# [11] = Single dose pharmacokinetics, mouse; type: in vivo, Swiss mouse; settings: for half-life: po, 1 mg/kg
# [12] = 2-week and 13-week repeated dose TK studies, monkey; type: in vivo; settings: for emesis: 100 mg/kg/day
# Method: In 2-week and 13-week repeated dose TK studies in monkey, animals were dosed orally at 10, 30 or 100 mg/kg/day (2-week study) or at 10, 30 or 60 mg/kg/day (13-week study). […] In the 2-week study, exposure increased roughly proportional to dose from 10 to 30 mg/kg/day on Days 1 and 14 and less than proportionally from 30 to 100 mg/kg/day on Days 1 and 14; emesis in the 100 mg/kg/day dose group, 6/6 animals on Day 1 and 5/6 animals on Day 14, may have contributed to this. There was little accumulation in any dose group from Day 1 to Day 14.
# [13] = Clinical studies with oral formulation; type: in vivo
# Source text: The drug substance for Compound 1 nasal spray was previously used in clinical trials as an oral formulation. […] Compound 1 is re-formulated as a nasal spray.
# [14] = 13-week repeat-dose oral toxicity in Cynomolgus monkeys; type: in vivo, Cynomolgus monkey; settings: for AUC / Cmax: plasma, po, at the NOAEL (30 mg/kg); for incidence of mild interstitial vacuolization in the heart: 60 mg/kg
# Method: Compound 1 was given to Cynomolgus monkeys once daily for at least 13 weeks via oral gavage at doses of 10, 30, or 60 mg/kg/day. At the end of the dosing period, 2 monkeys per sex in the high-dose and control dose groups were selected for a recovery of 4 weeks. […] In the surviving monkeys at 60 mg/kg/day, clinical observations included emesis, decreased motor activity, body weight loss, slight increases in QT (up to +16%), QTcB (up to +9.2%), and QTcF (up to +11%) intervals that were associated with slight decreases in heart rate. These findings had resolved by the end of the 4-week recovery period. […] At 30 mg/kg, all animals had emesis, but they had fewer episodes of emesis than the animals dosed at 60 mg/kg. The dose of 30 mg/kg was well tolerated and was considered the NOAEL, Cmax and AUC increased less than proportionally at doses between 10 and 30 mg/kg.
# [15] = system: cultured human peripheral blood lymphocytes; assay: chromosome aberration assay; type: cell-based; settings: in vitro
# Source text: Compound 1 was negative for mutagenicity in both in vitro bioassays—including an Ames test, a micronucleus test in mouse lymphoma cells, and a chromosome aberration assay using cultured human peripheral blood lymphocytes—and an in vivo rat bone marrow micronucleus test.
# [16] = single-dose nasal spray tolerability and PK in rabbits; type: in vivo, New Zealand White rabbit; settings: male rabbits
# Method: The potential toxicity and TK of Compound 1 nasal spray was assessed following a single spray (100 μL) of either 2% or 5% Compound 1 in the right nostril of male New Zealand White rabbits (N=36). Phosphate buffered solution (PBS) served as the control and was sprayed (100 μL) in the left nostril. Bioanalytical and histopathological analyses were conducted at 1, 3, 6, 9, and 24 h post-treatment. Prior to sacrifice, the intranasal/nasal area of each animal was assessed using the Draize Classification System for Scoring Skin Irritation.
# [17] = [3H] DA release, Rat Striatal Synaptosomes
# [18] = [3H]-DA release, rat striatal synaptosomes
# [19] = plasma, Swiss mouse, 1.0 mg/kg Compound 1, oral
# [20] = female, cynomolgus monkey, females
# [21] = surviving monkeys, 60 mg/kg/day
smiles,measurement,setting,value
"C(=C\[C@H]1CCNC1)/c1cncnc1 [Compound 1, (R)-5-((E)-2-pyrrolidin-3-ylvinyl)pyrimidine]",Ki,[1],36 µM
same,Ki,[2],1.1 µM
same,DA Release ratio,[3]; [17],0.55 DA
same,EC50,[3]; [17],3.9 µM and 3.93 µM
same,Emax,[3]; [17],110 and 114
same,EC50,[3]; [18],3.93 µM
same,Emax,[3]; [18],114 % of nicotine
same,agonist type at the α4β2 subtype,[3]; [18],nM. Compound 1 is a full agonist at the α4β2
same,EC50,"[4]; Human a3b2, Ca++ Flux",8.7 µM
same,Emax,"[4]; Human a3b2, Ca++ Flux",66%
same,agonist type,[4]; α3β2 subtype,partial agonist
same,(Imax),[5]; Human a6/a3b2b3,49
same,IC50,[5]; Human a6/a3b2b3,2.8 µM
same,DC50,"[5]; Human a6/a3b2b3, Ca++ Flux",0.031 µM
same,Dmax,"[5]; Human a6/a3b2b3, Ca++ Flux",99%
same,EC50,"[5]; Human a6/a3b2b3, Ca++ Flux",0.47 µM
same,Emax,"[5]; Human a6/a3b2b3, Ca++ Flux",92%
same,activity at high and low sensitivity alpha4beta2-containing NNR subtypes,[6],agonist activity
same,convulsions in combination with subconvulsant pentylenetetrazole,"[7]; 10, 30, 100 mg/kg po",no noteworthy changes; also recorded: not did not induce convulsions. D-
same,"NOEL, convulsant properties",[7]; po with pentylenetetrazole,The NOEL was 100 mg/kg.
same,lengthening of action potential duration,[8]; 30 μM,7%
same,lengthening of action potential duration,[8]; 100 μM,20%
same,"resting membrane potential, action potential amplitude, Vmax",[8]; any concentration (3-100 μM),"no effect on resting membrane potential,"
same,action potential duration,[8]; at 3 and 10 μM,no effect
same,action potential duration,"[8]; at 30 and 100 μM, concentration dependent",dependent lengthening of the action
same,effects on QTc,[9]; 1 mg/kg iv,"doses up to 0.3 mg/kg, mild and reversible"
same,lethality,[9]; 10 mg/kg iv,10 mg/kg was lethal.
same,peak increase in heart rate,"[9]; 1, 3, and 10 mg/kg iv",rate was 41 beats per minute.
same,peak increase in systolic blood pressure,"[9]; 1, 3, and 10 mg/kg iv",58 mmHg; and the peak increase in heart
same,time in which effects resolved,[9]; 1 and 3 mg/kg iv,3 min
same,effects on QTc/ECG,[9]; 3 and 10 mg/kg iv,"effects on QTc at 1 mg/kg, and severe"
same,effects on ECGs,[9]; doses up to 0.3 mg/kg iv,Compound 1 caused no effects on ECGs at
same,solubility,"[10]; 0.1N HCl, simulated gastric fluid",> 10000 µg/mL
same,solubility,[10]; Water (pH 5.9),> 10000 µg/mL
same,solubility,"[10]; aqueous buffer, 0.1M citrate buffer (pH 4.0)",> 10000 µg/mL
same,solubility,"[10]; aqueous buffer, 0.1M phosphate buffer (pH 6.8)",> 10000 µg/mL
same,Kp,"[11]; Swiss, mouse, brain, oral, 1 mg/kg orally, read-out: brain exposure as share of plasma exposure",~0.3
same,half-life,"[11]; Swiss, mouse, plasma, 1 mg/kg orally, read-out: terminal elimination half-life (converted)",~30 min
same,half-life,"[11]; Swiss, mouse, plasma, Swiss mouse, 1.0 mg/kg Compound 1, oral, read-out: t1/2 (converted)",30 min
same,Cmax,[11]; [19],15 ng/mL
same,Tmax,[11]; [19],10 min
same,AUC(0-t),"[11]; plasma, Swiss mouse, 1.0 mg/kg Compound 1, oral, t = 25 h, read-out: AUC0-1",10.1 ng·h/mL
same,emesis,"[12]; Day 1, 2-week study",6/6
same,emesis,"[12]; Day 14, 2-week study",5/6
same,Tmax,"[12]; both sexes, cynomolgus, monkey, in vivo, oral 10-100 mg/kg/day, 2-week and 13-week studies",30 to 360 min
same,accumulation,[12]; either study,Little to no accumulation
same,gender effect,[12]; either study,no gender effect
same,efficacy in clinical studies,[13],failed to reach efficacy endpoints
same,safety in clinical studies,[13],considered safe
same,NOAEL at 13 weeks,"[14]; both sexes, cynomolgus monkey, in vivo, Cynomolgus monkeys, oral gavage once daily, 13 weeks",30 mg/kg
same,AUC,[14]; [20],2440 ng·h/mL
same,Cmax,[14]; [20],696 ng/mL
same,incidence of mild interstitial vacuolization in the heart,[14]; females,2 of 3
same,AUC,"[14]; male, cynomolgus monkey, males",1670 ng·h/mL
same,Cmax,"[14]; male, cynomolgus monkey, males",382 ng/mL
same,incidence of mild interstitial vacuolization in the heart,[14]; males,1 of 2
same,body weight loss vs. Day 1 value,[14]; one monkey at 60 mg/kg/day sacrificed during the fourth week,−22%
same,increase in QT interval,[14]; [21],up to +16%
same,increase in QTcB interval,[14]; [21],up to +9.2%
same,increase in QTcF interval,[14]; [21],up to +11%
same,"mutagenicity, chromosome aberration assay",[15],negative
same,intranasal/nasal assessment (Draize),[16]; single 100 μL spray of 2% or 5%,"no signs of erythema, edema, eschar formation or discharge"
same,clinical signs,[16]; single 100 μL spray of 2% or 5% in right nostril,No clinical signs were observed
same,histopathology of the nasal cavity,"[16]; single 100 μL spray of 2% or 5%, 1 to 24 h post-treatment",no macroscopic or microscopic findings
